Each structure is given as a SMILES string. Calls of active or inactive are those of the source. The rule behind the calls is not given here.

In this assay the test system is RAW264.7. Kind of assay: Antiinflammatory activity against mouse RAW264.7 cells assessed as inhibition of LPS-induced NO production preincubated for 3 hrs followed by LPS-stimulation and measured after 24 hrs by Griess reagent based assay. Format: functional, cell-based. In general terms: Nitrite, measured by Griess reagent, commonly stands in for NO production.
`CC(=O)OCc1ccc(C(=O)O)o1`: the outcome was inactive.
Still for that read-out and setting: as for `COC(=O)/C=C/C(=O)O`, the entry is “inactive”; as for `COC(=O)CCC(=O)OCc1ccc(C(=O)O)o1`, “inactive”.
On to `COc1cc(C)c2c(OC)cc(=O)oc2c1-c1c(OC)cc(C)c2c(OC)cc(=O)oc12`, for which the outcome was inactive.
Consider `COc1cc(OC)c2c(c1)cc(O)c1c(=O)cc(C)oc12`, for which the outcome was inactive.
Take `NC(=O)c1coc(Cc2ccccc2)cc1=O`: the result was inactive.
On to `O=C(O)c1ccc(CO)o1`, for which the result was inactive.
As for `O=c1ccoc(Cc2ccccc2)c1`, the result was inactive.
In general, IC50 refers to the concentration at which inhibition is half-maximal. As for `COc1cc(OC)c2c(O)c3c(=O)cc(C)oc3c(-c3c(OC)cc4cc(O)c5c(=O)cc(C)oc5c4c3OC)c2c1` (atropisomer aS) [FONSECINONE A], the Activity result was “Dose-dependent effect” and the IC50 turned out to be 7 µM.
